These results are taken from patent publication US20250288683A1, “TETRAHYDROISOQUINOLINE HETEROBIFUNCTIONAL BCL-XL DEGRADERS” (Treeline Biosciences, Inc., priority 2022, published 2025).

The test deals with T1, Human BCL-XL protein (N-terminal HiBiT tagged BCL-XL in HT1080 cells) (Homo sapiens, UniProt Q07817).
T1 construct: expressed in transfected cells; host or cells: HT-1080 (ATCC CCL-121), stably transduced with lentivirus pLV-UBC-N-HiBiT-BCL-XL-PGK-puro and selected with puromycin
As to the kind of experiment: HiBiT based degradation assay. The class given is cell-based. The following applies: HT1080 cells expressing N-terminal HiBiT tagged BCL-XL, 24 h, normalized with DMSO control.

Each structure is given as a SMILES string.

T1 sequence (Q07817 whole entry): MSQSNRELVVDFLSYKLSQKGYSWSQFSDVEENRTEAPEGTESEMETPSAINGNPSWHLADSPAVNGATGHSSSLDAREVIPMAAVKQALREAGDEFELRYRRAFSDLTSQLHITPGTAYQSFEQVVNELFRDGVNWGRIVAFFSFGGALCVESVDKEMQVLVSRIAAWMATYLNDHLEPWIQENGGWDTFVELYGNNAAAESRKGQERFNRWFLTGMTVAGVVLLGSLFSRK

Regarding `Cc1ncsc1-c1ccc([C@H](C)NC(=O)[C@@H]2C[C@@H](O)CN2C(=O)[C@@H](NC(=O)CN2CCC(CCCOc3cccc(-c4ccc(N5CCc6cccc(C(=O)Nc7nc8ccccc8s7)c6C5)nc4C(=O)O)c3C)CC2)C(C)(C)C)cc1` [Compound 124a, 6-[8-(1,3-benzothiazol-2-ylcarbamoyl)-3,4-dihydro-1H-isoquinolin-2-yl]-3-[3-[3-[1-[2-[[(1S)-1-[(2S,4R)-4-hydroxy-2-[[(1S)-1-[4-(4-methylthiazol-5-yl)phenyl]ethyl]carbamoyl]pyrrolidine-1-carbonyl]-2,2-dimethyl-propyl]amino]-2-oxo-ethyl]-4-piperidyl]propoxy]-2-methyl-phenyl]pyridine-2-carboxylic acid], the “Ymin (24 h)” value was “A (Ymin < 50%)”. As to `Cc1ncsc1-c1ccc([C@@H](NC(=O)[C@@H]2C[C@@H](O)CN2C(=O)[C@@H](NC(=O)C[C@H]2CC[C@H](Oc3cccc(-c4ccc(N5CCc6cccc(C(=O)Nc7nc8ccccc8s7)c6C5)nc4C(=O)O)c3C)CC2)C(C)(C)C)C(F)(F)F)cc1` [Compound 125a, 6-(8-(benzo[d]thiazol-2-ylcarbamoyl)-3,4-dihydroisoquinolin-2 (1H)-yl)-3-(3-(((1S,4r)-4-(2-(((S)-1-((2S,4R)-4-hydroxy-2-(((R)-2,2,2-trifluoro-1-(4-(4-methylthiazol-5-yl)phenyl)ethyl)carbamoyl)pyrrolidin-1-yl)-3,3-dimethyl-1-oxobutan-2-yl)amino)-2-oxoethyl)cyclohexyl)oxy)-2-methylphenyl)picolinic acid], the “Ymin (24 h)” value is reported as “A (Ymin < 50%)”. On to `Cc1ncsc1-c1ccc([C@H](C)NC(=O)[C@@H]2C[C@@H](O)CN2C(=O)[C@@H](n2cc(CCCCCOc3cccc(-c4ccc(N5CCc6cccc(C(=O)Nc7nc8ccccc8s7)c6C5)nc4C(=O)O)c3C)nn2)C(C)(C)C)cc1` [Compound 126a, 6-[8-(1,3-benzothiazol-2-ylcarbamoyl)-3,4-dihydro-1H-isoquinolin-2-yl]-3-[3-[5-[1-[(1S)-1-[(2S,4R)-4-hydroxy-2-[[(1S)-1-[4-(4-methylthiazol-5-yl)phenyl]ethyl]carbamoyl]pyrrolidine-1-carbonyl]-2,2-dimethyl-propyl]triazol-4-yl]pentoxy]-2-methyl-phenyl]pyridine-2-carboxylic acid], for which the “Ymin (24 h)” value was “A (Ymin < 50%)”. Next, `Cc1ncsc1-c1ccc([C@H](C)NC(=O)[C@@H]2C[C@@H](O)CN2C(=O)[C@@H](NC(=O)CN2CCC(COc3cccc(-c4ccc(N5CCc6cccc(C(=O)Nc7nc8ccccc8s7)c6C5)nc4C(=O)O)c3C)CC2)C(C)(C)C)cc1` [Compound 127a, 6-[8-(1,3-benzothiazol-2-ylcarbamoyl)-3,4-dihydro-1H-isoquinolin-2-yl]-3-[3-[[1-[2-[[(1S)-1-[(2S,4R)-4-hydroxy-2-[[(1S)-1-[4-(4-methylthiazol-5-yl)phenyl]ethyl]carbamoyl]pyrrolidine-1-carbonyl]-2,2-dimethyl-propyl]amino]-2-oxo-ethyl]-4-piperidyl]methoxy]-2-methyl-phenyl]pyridine-2-carboxylic acid]: “A (Ymin < 50%)”; `Cc1ncsc1-c1ccc([C@H](C)NC(=O)[C@@H]2C[C@@H](O)CN2C(=O)[C@@H](n2cc(CCc3ccc(Oc4cccc(-c5ccc(N6CCc7cccc(C(=O)Nc8nc9ccccc9s8)c7C6)nc5C(=O)O)c4C)cc3)nn2)C(C)(C)C)cc1` [Compound 132a, 6-(8-(benzo[d]thiazol-2-ylcarbamoyl)-3,4-dihydroisoquinolin-2 (1H)-yl)-3-(3-(4-(2-(1-((S)-1-((2S,4R)-4-hydroxy-2-(((S)-1-(4-(4-methylthiazol-5-yl)phenyl)ethyl)carbamoyl)pyrrolidin-1-yl)-3,3-dimethyl-1-oxobutan-2-yl)-1H-1,2,3-triazol-4-yl)ethyl)phenoxy)-2-methylphenyl)picolinic acid]: “B (50% ≤ Ymin < 70%)”. For the compound `Cc1ncsc1-c1ccc([C@H](C)NC(=O)[C@@H]2C[C@@H](O)CN2C(=O)[C@@H](NC(=O)C(C)(C)CCc2ccc(Oc3cccc(-c4ccc(N5CCc6cccc(C(=O)Nc7nc8ccccc8s7)c6C5)nc4C(=O)O)c3C)cc2)C(C)(C)C)cc1` [Compound 133a, 6-[8-(1,3-benzothiazol-2-ylcarbamoyl)-3,4-dihydro-1H-isoquinolin-2-yl]-3-[3-[4-[4-[[(1S)-1-[(2S,4R)-4-hydroxy-2-[[(1S)-1-[4-(4-methylthiazol-5-yl)phenyl]ethyl]carbamoyl]pyrrolidine-1-carbonyl]-2,2-dimethyl-propyl]amino]-3,3-dimethyl-4-oxo-butyl]phenoxy]-2-methyl-phenyl]pyridine-2-carboxylic acid], the “Ymin (24 h)” value is recorded as “B (50% ≤ Ymin < 70%)”. Next, `Cc1ncsc1-c1ccc(CNC(=O)[C@@H]2C[C@@H](O)CN2C(=O)[C@@H](NC(=O)C2(F)CC2)C(C)(C)SCCCCCCCCOc2cccc(-c3ccc(N4CCc5cccc(C(=O)Nc6nc7ccccc7s6)c5C4)nc3C(=O)O)c2C)cc1` [Compound 136a, 6-(8-(benzo[d]thiazol-2-ylcarbamoyl)-3,4-dihydroisoquinolin-2 (1H)-yl)-3-(3-((8-(((R)-3-(1-fluorocyclopropane-1-carboxamido)-4-((2S,4R)-4-hydroxy-2-((4-(4-methylthiazol-5-yl)benzyl)carbamoyl)pyrrolidin-1-yl)-2-methyl-4-oxobutan-2-yl)thio)octyl)oxy)-2-methylphenyl)picolinic acid]: “A (Ymin < 50%)”. `Cc1ncsc1-c1ccc(CNC(=O)[C@@H]2C[C@@H](O)CN2C(=O)[C@@H](NC(=O)C2(F)CC2)C(C)(C)SCCCCCCCCCCOc2cccc(-c3ccc(N4CCc5cccc(C(=O)Nc6nc7ccccc7s6)c5C4)nc3C(=O)O)c2C)cc1` [Compound 137a, 6-(8-(benzo[d]thiazol-2-ylcarbamoyl)-3,4-dihydroisoquinolin-2 (1H)-yl)-3-(3-((10-(((R)-3-(1-fluorocyclopropane-1-carboxamido)-4-((2S,4R)-4-hydroxy-2-((4-(4-methylthiazol-5-yl)benzyl)carbamoyl)pyrrolidin-1-yl)-2-methyl-4-oxobutan-2-yl)thio)decyl)oxy)-2-methylphenyl)picolinic acid]: the “Ymin (24 h)” value is “B (50% ≤ Ymin < 70%)”. As for `Cc1ncsc1-c1ccc([C@H](C)NC(=O)[C@@H]2C[C@@H](O)CN2C(=O)[C@@H](NC(=O)C(F)(F)CCc2ccc(Oc3cccc(-c4ccc(N5CCc6cccc(C(=O)Nc7nc8ccccc8s7)c6C5)nc4C(=O)O)c3C)cc2)C(C)(C)C)cc1` [Compound 139a], the entry is “A (Ymin < 50%)”; as for `Cc1ncsc1-c1ccc(CNC(=O)[C@@H]2C[C@@H](O)CN2C(=O)[C@@H](NC(=O)C2(F)CC2)C(C)(C)SCCCCCCCOc2cccc(-c3ccc(N4CCc5cccc(C(=O)Nc6nc7ccccc7s6)c5C4)nc3C(=O)O)c2C)cc1` [Compound 140a], “B (50% ≤ Ymin < 70%)”; as for `Cc1ncsc1-c1ccc(CNC(=O)[C@@H]2C[C@@H](O)CN2C(=O)[C@@H](NC(=O)C2(F)CC2)C(C)(C)SCCCCCCCCCOc2cccc(-c3ccc(N4CCc5cccc(C(=O)Nc6nc7ccccc7s6)c5C4)nc3C(=O)O)c2C)cc1` [Compound 141a], “A (Ymin < 50%)”. Next, `Cc1ncsc1-c1ccc(CNC(=O)[C@@H]2C[C@@H](O)CN2C(=O)[C@@H](NC(=O)C2(F)CC2)C(C)(C)SCCCCCCCCCCCCOc2cccc(-c3ccc(N4CCc5cccc(C(=O)Nc6nc7ccccc7s6)c5C4)nc3C(=O)O)c2C)cc1` [Compound 142a]: “B (50% ≤ Ymin < 70%)”. Next, `Cc1ncsc1-c1ccc([C@H](C)NC(=O)[C@@H]2C[C@@H](O)CN2C(=O)[C@@H](NC(=O)C(F)(F)[C@H]2CC[C@H](Oc3cccc(-c4ccc(N5CCc6cccc(C(=O)Nc7nc8ccccc8s7)c6C5)nc4C(=O)O)c3C)CC2)C(C)(C)C)cc1` [Compound 144a]: “A (Ymin < 50%)”; `Cc1ncsc1-c1ccc([C@H](C)NC(=O)[C@@H]2C[C@@H](O)CN2C(=O)[C@@H](NC(=O)C(F)(F)[C@H]2CC[C@@H](Oc3cccc(-c4ccc(N5CCc6cccc(C(=O)Nc7nc8ccccc8s7)c6C5)nc4C(=O)O)c3C)CC2)C(C)(C)C)cc1` [Compound 144b]: “C (Ymin ≥ 70%)”.
